{"source": "patent US7361645B2", "about": "“Androgenic 7-substituted 11-halogen steroids” (Bayer Schering Pharma AG, priority 2001, dated 2008)", "key": {"[1]": {"assay": "Stability in liver microsomes, rat", "format": "in vitro ADME", "details": "3 μM", "protocol": "(§1) The metabolic stability of the compounds has been tested in liver microsomes of various species (commercially available). It is possible to make predictions as to the first-pass-metabolism in human by using human test material. A rapid degradation of the test material gives hints at low oral bio-availability of the substance tested.\n(§2) The amount of the remaining compound is quantified by comparison with the amount remaining after 0 mins.\n(§3) Species Specific Stability of Test Compounds in Liver at a Concentration of 3 μM"}, "[2]": {"tested_on": "prostate, seminal vesicles and M. levator ani", "assay": "Anabolic and androgenic activity in the juvenile male rat (Hershberger), overall", "format": "in vivo", "details": "compared with prior art compound B", "excerpt": "(§4) The test by Hershberger et al. (1953) is used as a screening test method for detecting androgenic properties:\n(§5) Principle. The function and size of the accessory reproductive glands (seminal vesicles, prostate) and of the muscle (e.g. M. levator ani) are androgen dependent. Castration leads to the atrophy of these organs, the substitution with androgenic compounds stimulates growth and function in a dose dependent manner.\n(§6) Test description. In the juvenile male castrated rat, pharmacologically active agonists of androgens stimulate the growth of the prostate, seminal vesicles (androgenic property) and Musculus levator ani (anabolic property). The treatment for seven days of juvenile castrated male rats with daily administration of compound A: 11β-Fluoro-17β-hydroxy-7α-methyl-estr-4-en-3-one,(different doses), compound B: 7α-methyl-19-nortestosterone (different doses), testosterone propionate (reference) and benzylbenzoate/ricinus oil (solvent and control), respectively, was used to determine the androgenic and anabolic potency of eF-MENT. Analyses: relative weights of prostate, seminal vesicles and M. levator ani."}, "[3]": {"tested_on": "M. levator ani", "assay": "Hershberger test, juvenile castrated male rat: M. levator ani weight", "format": "in vivo", "details": "ORX juvenile rats, 7 days", "excerpt": "as §4, §5, §6\n(§7) Animals: ORX, juvenile rats, duration of treatment: 7 days."}, "[4]": {"assay": "Stability in liver microsomes, human", "format": "in vitro ADME", "details": "3 μM", "protocol": "as §1, §2, §3"}, "[5]": {"assay": "Stability in liver microsomes, mouse", "format": "in vitro ADME", "details": "3 μM", "protocol": "as §1, §2, §3"}, "[6]": {"assay": "Stability in liver microsomes of various species, overall", "format": "in vitro ADME", "details": "compared with compounds of the prior art", "protocol": "as §1, §2"}, "[7]": {"tested_on": "prostate", "assay": "Hershberger test, juvenile castrated male rat: prostate weight", "format": "in vivo", "details": "ORX juvenile rats, 7 days", "excerpt": "as §4, §5, §6, §7"}, "[8]": {"tested_on": "seminal vesicles", "assay": "Hershberger test, juvenile castrated male rat: seminal vesicles weight", "format": "in vivo", "details": "ORX juvenile rats, 7 days", "excerpt": "as §4, §5, §6, §7"}}, "note": "Values joined by “and” are separate entries in the source; they are usually repeats but may differ in a detail not shown here. Equal entries are not always repeated.", "data": [{"smiles": "C[C@@H]1CC2=CC(=O)CC[C@@H]2[C@@H]2[C@@H]1[C@@H]1CC[C@H](O)[C@@]1(C)C[C@@H]2F", "note": "[Compound A, 11β-Fluoro-17β-hydroxy-7α-methyl-estr-4-en-3-one]", "values": [{"measurement": "(%) left unchanged after 30 min", "setting": "[1]", "value": 5, "unit": "%"}, {"measurement": "(%) left unchanged after 60 min", "setting": "[1]", "value": 7, "unit": "%"}, {"measurement": "activity profile (androgenic/anabolic)", "setting": "[2]", "value": "comparable to the prior art compound B"}, {"measurement": "M. levator ani Stimulation [mean]", "setting": "[3]; dose 0.015 mg*kg^-1*day^-1", "value": 79.5}, {"measurement": "M. levator ani rel. Weight", "setting": "[3]; dose 0.015 mg*kg^-1*day^-1", "value": "54.9 mg/100 g and 50.8 mg/100 g"}, {"measurement": "M. levator ani Stimulation [mean]", "setting": "[3]; dose 0.03 mg*kg^-1*day^-1", "value": 93.3}, {"measurement": "M. levator ani rel. Weight", "setting": "[3]; dose 0.03 mg*kg^-1*day^-1", "value": 56.5, "unit": "mg/100 g"}, {"measurement": "M. levator ani Stimulation [mean]", "setting": "[3]; dose 0.05 mg*kg^-1*day^-1", "value": 118.0}, {"measurement": "M. levator ani rel. Weight", "setting": "[3]; dose 0.05 mg*kg^-1*day^-1", "value": 59.4, "unit": "mg/100 g"}, {"measurement": "M. levator ani Stimulation [mean]", "setting": "[3]; dose 0.15 mg*kg^-1*day^-1", "value": 154.5}, {"measurement": "M. levator ani Stimulation [mean]", "setting": "[3]; dose 0.3 mg*kg^-1*day^-1", "value": 180.4}, {"measurement": "M. levator ani rel. Weight", "setting": "[3]; dose 0.3 mg*kg^-1*day^-1", "value": 69.8, "unit": "mg/100 g"}, {"measurement": "M. levator ani Stimulation [mean]", "setting": "[3]; dose 1.5 mg*kg^-1*day^-1", "value": 181.0}, {"measurement": "M. levator ani rel. Weight", "setting": "[3]; dose 1.5 mg*kg^-1*day^-1", "value": 69.9, "unit": "mg/100 g"}, {"measurement": "(%) left unchanged after 30 min", "setting": "[4]", "value": 59, "unit": "%"}, {"measurement": "(%) left unchanged after 60 min", "setting": "[4]", "value": 41, "unit": "%"}, {"measurement": "(%) left unchanged after 30 min", "setting": "[5]", "value": 20, "unit": "%"}, {"measurement": "(%) left unchanged after 60 min", "setting": "[5]", "value": 11, "unit": "%"}, {"measurement": "metabolic stability", "setting": "[6]", "value": "higher than that of compounds of the prior art"}, {"measurement": "Prostate Stimulation [mean]", "setting": "[7]; dose 0.015 mg*kg^-1*day^-1", "value": 30.0}, {"measurement": "Prostate rel. Weight", "setting": "[7]; dose 0.015 mg*kg^-1*day^-1", "value": "19.7 mg/100 g and 18.5 mg/100 g"}, {"measurement": "Prostate Stimulation [mean]", "setting": "[7]; dose 0.03 mg*kg^-1*day^-1", "value": 40.1}, {"measurement": "Prostate rel. Weight", "setting": "[7]; dose 0.03 mg*kg^-1*day^-1", "value": 25.2, "unit": "mg/100 g"}, {"measurement": "Prostate Stimulation [mean]", "setting": "[7]; dose 0.05 mg*kg^-1*day^-1", "value": 76.6}, {"measurement": "Prostate rel. Weight", "setting": "[7]; dose 0.05 mg*kg^-1*day^-1", "value": 34.1, "unit": "mg/100 g"}, {"measurement": "Prostate Stimulation [mean]", "setting": "[7]; dose 0.15 mg*kg^-1*day^-1", "value": 93.8}, {"measurement": "Prostate rel. Weight", "setting": "[7]; dose 0.15 mg*kg^-1*day^-1", "value": "41.7 mg/100 g and 44.9 mg/100 g and 47.5 mg/100 g"}, {"measurement": "Prostate Stimulation [mean]", "setting": "[7]; dose 0.3 mg*kg^-1*day^-1", "value": 125.1}, {"measurement": "Prostate rel. Weight", "setting": "[7]; dose 0.3 mg*kg^-1*day^-1", "value": 59.5, "unit": "mg/100 g"}, {"measurement": "Prostate Stimulation [mean]", "setting": "[7]; dose 1.5 mg*kg^-1*day^-1", "value": 137.3}, {"measurement": "Prostate rel. Weight", "setting": "[7]; dose 1.5 mg*kg^-1*day^-1", "value": 64.6, "unit": "mg/100 g"}, {"measurement": "Seminal vesicles Stimulation [mean]", "setting": "[8]; dose 0.015 mg*kg^-1*day^-1", "value": 18.6}, {"measurement": "Seminal vesicles rel. Gewicht", "setting": "[8]; dose 0.015 mg*kg^-1*day^-1", "value": "18.6 mg/100 g and 15.5 mg/100 g"}, {"measurement": "Seminal vesicles Stimulation [mean]", "setting": "[8]; dose 0.03 mg*kg^-1*day^-1", "value": 35.6}, {"measurement": "Seminal vesicles rel. Gewicht", "setting": "[8]; dose 0.03 mg*kg^-1*day^-1", "value": 26.8, "unit": "mg/100 g"}, {"measurement": "Seminal vesicles Stimulation [mean]", "setting": "[8]; dose 0.05 mg*kg^-1*day^-1", "value": 59.2}, {"measurement": "Seminal vesicles rel. Gewicht", "setting": "[8]; dose 0.05 mg*kg^-1*day^-1", "value": 43.6, "unit": "mg/100 g"}, {"measurement": "Seminal vesicles Stimulation [mean]", "setting": "[8]; dose 0.15 mg*kg^-1*day^-1", "value": 85.5}, {"measurement": "Seminal vesicles rel. Gewicht", "setting": "[8]; dose 0.15 mg*kg^-1*day^-1", "value": "49.3 mg/100 g and 57.9 mg/100 g and 64.4 mg/100 g"}, {"measurement": "Seminal vesicles Stimulation [mean]", "setting": "[8]; dose 0.3 mg*kg^-1*day^-1", "value": 144.8}, {"measurement": "Seminal vesicles rel. Gewicht", "setting": "[8]; dose 0.3 mg*kg^-1*day^-1", "value": 93.4, "unit": "mg/100 g"}, {"measurement": "Seminal vesicles Stimulation [mean]", "setting": "[8]; dose 1.5 mg*kg^-1*day^-1", "value": 189.3}, {"measurement": "Seminal vesicles rel. Gewicht", "setting": "[8]; dose 1.5 mg*kg^-1*day^-1", "value": 120.0, "unit": "mg/100 g"}]}, {"smiles": "C[C@@H]1CC2=CC(=O)CC[C@@H]2[C@H]2CC[C@]3(C)[C@@H](O)CC[C@H]3[C@@H]21", "note": "[Compound B, 7α-methyl-19-nortestosterone, reference compound]", "values": [{"measurement": "(%) left unchanged after 30 min", "setting": "[1]", "value": 4, "unit": "%"}, {"measurement": "(%) left unchanged after 60 min", "setting": "[1]", "value": 6, "unit": "%"}, {"measurement": "M. levator ani Stimulation [mean]", "setting": "[3]; dose 0.005 mg*kg^-1*day^-1", "value": 71.3}, {"measurement": "M. levator ani rel. Weight", "setting": "[3]; dose 0.005 mg*kg^-1*day^-1", "value": 36.6, "unit": "mg/100 g"}, {"measurement": "M. levator ani Stimulation [mean]", "setting": "[3]; dose 0.015 mg*kg^-1*day^-1", "value": 92.6}, {"measurement": "M. levator ani rel. Weight", "setting": "[3]; dose 0.015 mg*kg^-1*day^-1", "value": "38.1 mg/100 g and 53.7 mg/100 g"}, {"measurement": "M. levator ani Stimulation [mean]", "setting": "[3]; dose 0.05 mg*kg^-1*day^-1", "value": 150.7}, {"measurement": "M. levator ani rel. Weight", "setting": "[3]; dose 0.05 mg*kg^-1*day^-1", "value": "48.1 mg/100 g and 59.4 mg/100 g"}, {"measurement": "M. levator ani Stimulation [mean]", "setting": "[3]; dose 0.15 mg*kg^-1*day^-1", "value": 283.4}, {"measurement": "M. levator ani rel. Weight", "setting": "[3]; dose 0.15 mg*kg^-1*day^-1", "value": 59.4, "unit": "mg/100 g"}, {"measurement": "(%) left unchanged after 30 min", "setting": "[4]", "value": 37, "unit": "%"}, {"measurement": "(%) left unchanged after 60 min", "setting": "[4]", "value": 19, "unit": "%"}, {"measurement": "(%) left unchanged after 30 min", "setting": "[5]", "value": 4, "unit": "%"}, {"measurement": "(%) left unchanged after 60 min", "setting": "[5]", "value": 4, "unit": "%"}, {"measurement": "Prostate Stimulation [mean]", "setting": "[7]; dose 0.005 mg*kg^-1*day^-1", "value": 4.3}, {"measurement": "Prostate rel. Weight", "setting": "[7]; dose 0.005 mg*kg^-1*day^-1", "value": 8.9, "unit": "mg/100 g"}, {"measurement": "Prostate Stimulation [mean]", "setting": "[7]; dose 0.015 mg*kg^-1*day^-1", "value": 24.0}, {"measurement": "Prostate rel. Weight", "setting": "[7]; dose 0.015 mg*kg^-1*day^-1", "value": "14.6 mg/100 g and 20.0 mg/100 g"}, {"measurement": "Prostate Stimulation [mean]", "setting": "[7]; dose 0.05 mg*kg^-1*day^-1", "value": 51.3}, {"measurement": "Prostate rel. Weight", "setting": "[7]; dose 0.05 mg*kg^-1*day^-1", "value": "24.7 mg/100 g and 31.7 mg/100 g"}, {"measurement": "Prostate Stimulation [mean]", "setting": "[7]; dose 0.15 mg*kg^-1*day^-1", "value": 90.2}, {"measurement": "Prostate rel. Weight", "setting": "[7]; dose 0.15 mg*kg^-1*day^-1", "value": 40.6, "unit": "mg/100 g"}, {"measurement": "Seminal vesicles Stimulation [mean]", "setting": "[8]; dose 0.005 mg*kg^-1*day^-1", "value": 4.6}, {"measurement": "Seminal vesicles rel. Gewicht", "setting": "[8]; dose 0.005 mg*kg^-1*day^-1", "value": 9.2, "unit": "mg/100 g"}, {"measurement": "Seminal vesicles Stimulation [mean]", "setting": "[8]; dose 0.015 mg*kg^-1*day^-1", "value": 17.0}, {"measurement": "Seminal vesicles rel. Gewicht", "setting": "[8]; dose 0.015 mg*kg^-1*day^-1", "value": "13.6 mg/100 g and 19.2 mg/100 g"}, {"measurement": "Seminal vesicles Stimulation [mean]", "setting": "[8]; dose 0.05 mg*kg^-1*day^-1", "value": 51.8}, {"measurement": "Seminal vesicles rel. Gewicht", "setting": "[8]; dose 0.05 mg*kg^-1*day^-1", "value": "36.8 mg/100 g and 39.0 mg/100 g"}, {"measurement": "Seminal vesicles Stimulation [mean]", "setting": "[8]; dose 0.15 mg*kg^-1*day^-1", "value": 87.8}, {"measurement": "Seminal vesicles rel. Gewicht", "setting": "[8]; dose 0.15 mg*kg^-1*day^-1", "value": 65.5, "unit": "mg/100 g"}]}]}
